In one assay the test system is RA model. Put plainly: Rheumatoid arthritis (RA) model (Freund's adjuvant complete). In kind it is in vivo, Wistar rats. As to conditions: RA rats, gavage 10 mg/kg once a day, 21 days; for IL-10 in serum / IL-17 in serum: ELISA; for Joint score (arthritis score): maximum 16 points. The method, then:
Freund's Adjuvant Complete (FCA, purchased from Sigma, USA); IL-10 ELISA kit (Lianke Biotechnology Co., Ltd.); IL-17 ELISA kit (Raybiotech, USA). Eighteen 5-week-old female Wistar rats were randomly divided into the control group, RA model group, and CLY series compound treatment group, with 6 rats in each group. The control group: disinfected the right toe of rats with 75% alcohol, and injected 0.15 mL physiological saline subcutaneously into the right toe of rats. The RA model group: On the first day of the experiment, each rat was routinely disinfected, and 0.15 mL of FCA was injected subcutaneously into the right foot of the rat. The CLY series compound treatment group: On the first day after the experiment, each rat was routinely disinfected, and 0.15 mL of FCA was injected subcutaneously into the right plantar of the rat. After 7 days, CLY series compound was administered by gavage with a dose of 10 mg/kg once a day. The RA model group and control group were administered by gavage with normal saline (10 mg/kg·d) every day for 21 consecutive days. On the 21st day after the intervention of CLY series compounds, 3 mL of blood was collected from the heart of rats, and the serum was isolated. The levels of IL-10 and IL-17 in the serum of rats were detected by ELISA. After the 21st day of intervention, the arthritis score of each group of rats was measured, and the swelling degree of the right toe joint of each group of rats was measured. According to the inflammatory reaction of RA rats, the severity of the ankle joint was scored as 0 to 4, which was normal; 1 point, slightly red and slightly swollen ankle joint; 2 points: erythema and slight swelling from ankle joint to metatarsal joint or metacarpal joint; 3 points: erythema and moderate swelling from ankle joint to metacarpal joint or metatarsophalangeal joint; 4 points, the ankle joint to toe joint were severely red and swollen. Added the limb scores of each rat as the arthritis score, and the maximum score was 16 points.
A general note: ELISA stands for enzyme-linked immunosorbent assay.

In a further assay the test system is acute GVHD mice. Briefly: Mouse model of acute graft-versus-host disease. In kind it is in vivo, BALB/c mice. Particulars: 5 mg/kg/d intravenously; for pathological changes of liver: 2 weeks after transplantation, hematoxylin-eosin; for clinical symptom score (GVHD): 11th day after transplantation, acute GVHD group 7.48±0.77; for survival rate of mice: Kaplan-Meier, three weeks after transplantation, acute GVHD group 12.13%. The method, then: Preparation of bone marrow cells: the donor mice were sacrificed by cervical dislocation, soaked in 75% ethanol for 5 minutes, and the two femurs and tibia of the mice were taken out under sterile conditions in the ultra-clean table, and placed in RPMI1640 medium containing 2% fetal bovine serum. Rinsed the bone marrow cavity with RPMI1640 culture medium, took out the bone marrow cells, blew them into the bone marrow suspension with sterile washing tube, filtered them with a 200 mesh filter, centrifuged for 10 min at 1500 r/min, collected the cell precipitates, and added physiological saline for resuspension. In addition, took a small amount of cell suspension and counted the number of nucleated cells after removing the red blood cells from the red blood cell lysate. And adjusted the concentration of nucleated cells in bone marrow suspension to 5×1010 L-1.
Preparation of spleen mononuclear cells: cut the spleen envelope aseptically, put it on a 200-mesh filter screen, soaked it in RPMI1640 medium containing 2% fetal bovine serum by volume, gently grinded the spleen with the handle of a sterile syringe, washed the filter screen several times with the culture medium, collected the filtered spleen cell suspension, centrifuged it at 1500 r/min for 10 min, and collected the spleen cell precipitation. After PBS resuspension, it was blown into a single cell suspension, gently placed on the upper layer of mouse spleen lymphocyte separation solution, centrifuged at 1800 r/min for 20 min, and white membrane cells were collected. PBS was washed twice. After cell count, the cell density was adjusted to 5×1010 L-1, and put in a 4° C. refrigerator for use.
C57BL/6 mice were used as bone marrow transplantation donors and BABL/c mice as recipients. BABL/c mice were randomly divided into the control group, model group, and CLY treatment group (each group was injected with 5 mg/kg/d compound CLY-1, CLY-2, or CLY-8 intravenously) according to the number of body weight, with 6 mice in each group. One week before transplantation, BALB/c mice were fed sterile acidified water containing 200 mg/L gentamicin, and mice were given 8.5 Gy whole-body irradiation (cesium source) within 24 hours before transplantation. Model group and CLY-1 group, CLY-2 group, and CLY-8 group were injected with C57BL/6 mouse bone marrow nucleated cells (including cell 1×107) and spleen mononuclear cells (including cell 5×106) 0.5 mL of mixed solution was used to establish acute GVHD model in mice, and 0.5 mL of normal saline was infused into the tail vein of BABL/c mice in the control group. CLY-1 group, CLY-2 group, and CLY-8 group were injected with CLY compound solution of 5 mg/kg/d intravenously, and the other groups were injected with saline of 5 mg/kg/d.
1.3.1 GVHD symptom score of mice: observed the general conditions of mice every day after transplantation, including body mass, fur, posture, activity, diarrhea, and mental state, and determined whether the mice had acute GVHD. According to the clinical GVHD symptom scoring standard, the clinical GVHD symptoms of mice in each group were scored 11 days after transplantation.
1.3.2 Analysis of mouse survival time: collected the survival data of mice in each group three weeks after transplantation, drew the survival curve by the Kaplan-Meier method, and compared the differences between the survival rates of mice in each group by Log-rank analysis method.
1.3.3 Histopathological examination: two weeks after transplantation, three mice with GVHD were taken from each group, and the back skin tissue, liver, and small intestine tissue were taken. 40 g/L paraformaldehyde was fixed, paraffin was fixed and embedded, hematoxylin-eosin staining was performed, and the pathological changes of each tissue were observed under the light microscope.

Consider `O=C(c1ccc(-c2ccccc2Cl)cc1)N(c1ncccc1Cl)[C@@H]1CCCNC1` [CLY-36], for which, in the assay with RA model, the Body mass came out at 352.6 ± 12.96 g, the “Swelling degree (right toe joint)” value was determined as 9.3 ± 0.51 mm, the IL-10 in serum came out at 58.96 ± 5.89 pg/mL and the IL-17 in serum amounted to 44.18 ± 3.97 pg/mL. For the same compound, in the assay on RA model, the “Joint score (arthritis score)” value is 4.46 ± 0.42.
Take `O=C(c1ccc(-n2nnc3cccnc32)cc1)N(c1ncccc1Cl)[C@@H]1CCNC1` [CLY-8, (R)-4-(3H-[1,2,3]triazolo[4,5-b]pyridin-3-yl)-N-(3-chloropyridin-2-yl)-N-(pyrrolidin-3-yl)benzamide]: in the assay with acute GVHD mice, the “pathological changes of liver” value is on record as “only small necrotic lesions”, the “clinical symptom score (GVHD)” value came to 4.56±0.39 and the “survival rate of mice” value is recorded as 63.48%. Also, in the assay on RA model, the Body mass stood at 363.5 ± 13.63 g, the “Swelling degree (right toe joint)” value is 9.5 ± 0.72 mm, the IL-10 in serum was 66.75 ± 6.78 pg/mL and the IL-17 in serum is 43.51 ± 4.16 pg/mL. The “Joint score (arthritis score)” value in the assay with RA model is recorded as 4.32 ± 0.41.
Take `CN1CCC[C@@H](N(C(=O)c2ccc(-n3nnc4cccnc43)cc2)c2ncccc2Cl)C1` [CLY-1, (R)-4-(3H-[1,2,3]triazolo[4,5-b]pyridin-3-yl)-N-(3-chloropyridin-2-yl)-N-(1-methylpiperidin-3-yl)benzamide]: in the assay on acute GVHD mice, the “pathological changes of liver” value is reported as “only small necrotic lesions”, the “clinical symptom score (GVHD)” value came out at 5.28±0.53 and the “survival rate of mice” value is given as 61.26%. Moreover, in the assay on RA model, the Body mass was determined as 354.5 ± 13.48 g, the “Swelling degree (right toe joint)” value was determined as 9.7 ± 0.68 mm, the IL-10 in serum worked out at 65.36 ± 6.78 pg/mL and the IL-17 in serum is 46.15 ± 4.23 pg/mL. In addition, the “Joint score (arthritis score)” value in the assay on RA model is recorded as 4.35 ± 0.37.
Take `CCN1CCC[C@@H](N(C(=O)c2ccc(-n3nnc4cccnc43)cc2)c2ncccc2Cl)C1` [CLY-2, (R)-4-(3H-[1,2,3]triazolo[4,5-b]pyridin-3-yl)-N-(3-chloropyridin-2-yl)-N-(1-ethylpiperidin-3-yl)benzamide]: in the assay on acute GVHD mice, the “pathological changes of liver” value is “only small necrotic lesions”, the “clinical symptom score (GVHD)” value is reported as 4.68±0.42 and the “survival rate of mice” value worked out at 58.79%. Also, in the assay on RA model, the Body mass is 358.2 ± 13.92 g, the “Swelling degree (right toe joint)” value is 9.4 ± 0.53 mm, the IL-10 in serum came to 67.03 ± 7.02 pg/mL and the IL-17 in serum is given as 46.23 ± 3.96 pg/mL. Moreover, the “Joint score (arthritis score)” value in the assay on RA model stood at 4.21 ± 0.29.
